Data as given in PubChem BioAssay (NCI).
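Compound exposure: 48 hours, 5 concentrations, 96-well plates. Here, GI50 denotes the concentration required for 50% inhibition of growth. TGI: total growth inhibition.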

What was measured:
Assay in all cases: inhibition of tumour cell growth, NCI panel, 48 h
HCT-15 colon = tested on: HCT-15 colon
HCC-2998 colon = tested on: HCC-2998 colon
SK-OV-3 ovarian = tested on: SK-OV-3 ovarian
UACC-257 melanoma = tested on: UACC-257 melanoma
BT-549 breast = tested on: BT-549 breast
SNB-75 CNS = tested on: SNB-75 CNS
M14 melanoma = tested on: M14 melanoma
A549 NSCLC = tested on: A549 NSCLC

Structure (SMILES)	GI50 (HCT-15 colon) [µM]	TGI (HCT-15 colon) [µM]	GI50 (HCC-2998 colon) [µM]	TGI (HCC-2998 colon) [µM]	GI50 (SK-OV-3 ovarian) [µM]	TGI (SK-OV-3 ovarian) [µM]	GI50 (UACC-257 melanoma) [µM]	TGI (UACC-257 melanoma) [µM]	GI50 (BT-549 breast) [µM]	TGI (BT-549 breast) [µM]	GI50 (SNB-75 CNS) [µM]	TGI (SNB-75 CNS) [µM]	GI50 (M14 melanoma) [µM]	TGI (M14 melanoma) [µM]	GI50 (A549 NSCLC) [µM]	TGI (A549 NSCLC) [µM]
N#Cc1c(N)nc(N2CCOCC2)c(C#N)c1-c1c(Cl)cccc1Cl	4.04	25.8	0.0181	2.48	4.09	21	5.16	30.4	7	79.7	1.75	9.66	2.47	7.42	10.3	95.6
COc1cc(C2NC(=O)C(C#N)=C(Nc3cccc(C)c3)S2)ccc1O (configuration not stated)	> 100	> 100	> 100	> 100	> 100	> 100	> 100	> 100	> 100	> 100	> 100	> 100	> 100	> 100	> 100	> 100
O=C1/C(=C/c2ccc(C(F)(F)F)cc2)COc2ccc(O)c(O)c21	0.444	1.93	1.7	3.16	2.89	10.8	1.58	3.46	1.86	3.58	1.39	3.02	1.78	4.04	1.51	3.15
COc1cc(C(=O)n2nc(N)c3c(C)cc(C)nc32)cc(OC)c1OC	1.38	> 100	> 100	> 100	> 82.4	> 100	> 100	> 100	> 100	> 100	> 38.3	> 100	> 73.7	> 100	41.5	> 100
CC1=C[C@@H]2c3c(c(O)c(O)c4oc5cc(O)cc(O)c5c(=O)c34)[C@@H](c3cc(O)c(O)c4oc5cc(O)cc(O)c5c(=O)c34)[C@@H]2C(C)(C)C1	3.16	12.8	3.87	15.2	3.77	14.6	9.65	24.5	3.68	19.8	6.34	20.5	2.37	12.8	4.12	17.6
COc1ccc2c(c1)/C(=N/OC(C)=O)c1c-2c(OC)nc2ccccc12	> 100	> 100	> 100	> 100	48.1	> 100	> 100	> 100	> 100	> 100	18	> 100	> 100	> 100	> 100	> 100
Cc1ccc(-c2nc3sc(C)cn3c2/C=C2\C(=O)Nc3ccc(Cl)cc32)cc1	17.2	34.4	15.1	31.1	7.05	25.1	16.6	44.9	15.3	37.1	3.1	8.44	15.5	29.9	14.1	27.8
FC(F)(F)c1cccc(-c2[nH]ncc2-c2nnnn2-c2ccccc2)c1	3.71	16.3	2.5	11	6.05	21.9	11.4	33.9	3.78	13.9	4.81	20.1	3.21	11.6	4.54	84.9
Cc1c(C(N)=O)sc2nc(C)n(/N=c3\scc(-c4ccccc4)n3Cc3ccccc3)c(=O)c12	2.64	> 100	3.05	> 100	4.51	> 100	3.56	24.3	2.41	8.89	2.8	> 100	3.88	84.5	3.79	> 100
COc1cnccc1Nc1nc(-c2nn(Cc3c(F)cc(OCCO)cc3F)c3ccccc23)ncc1OC	2.63	> 100	10	> 100	19.4	48	4.38	17	6.51	28.5	3.76	18.4	1.79	10	2.93	10.3
COc1ccc(-c2[nH]ncc2Nc2cc(OC)c(OC)c(OC)c2)cc1	0.702	> 100	2.17	37.9	3.09	> 77.8	34	> 100	9.99	> 89.6	1.52	> 100	0.906	> 100	3.39	> 100
CCS(=O)(=O)c1ccc(OC)c(Nc2ncc(-c3cccc(F)c3)o2)c1	> 25	> 25	> 25	> 25	> 25	> 25	> 25	> 25	> 25	> 25	> 10.6	> 25	> 25	> 25	> 25	> 25
